Results on four compounds are retold here after patent publication US12708611B2, “Diagnostic and drug screening for molecular signatures of early onset sporadic parkinson's disease” (CEDARS-SINAI MEDICAL CENTER, priority 2018, dated 2026).

Structures are written as SMILES. Entries after “also recorded” stand apart in the source; their conditions may differ. Where a SMILES comes first, the peptide text is derived from it. The star is where a group is joined. Cbz = O=C(OCc1ccccc1)*

One data set concerns P53. Briefly: Proteasome inhibition of DaN cultures, P53 western blot. It counts as cell-based, human. Particulars: DaN cultures treated 24 hrs. An excerpt: (§1) Protein degradation can be largely divided into protosomal and autophagy/lysosomal degradation pathways.
Data set [1] concerns α-Synuclein. The data set is described as follows: Proteasome inhibition of DaN cultures, α-Synuclein western blot. It counts as cell-based, human. The settings on record: DaN cultures treated 24 hrs.
Excerpt: as §1
Background: Immunoblotting shows a protein as a band on a membrane.

The nature of data set [2]: PKC delta signal in DaN cultures on drug treatment. It counts as cell-based, human. An excerpt:
(§2) It is likely that the toxicity of PEP is more specific to highly proliferative cells whereas our differentiated neurons are largely post mitotoic.

In another data set the test system is TH enzyme. Briefly: Western blot of TH enzyme in treated DaNs. Type of data set: cell-based, human. The settings on record: both control and PD DaNs. Here is the method:
(§3) To test if the Inventors could reduce synuclein levels in our EOSPD DANs through activation of lysosomal specific pathways, the Inventors selected 3 lysosomal agonists. […] Starting at day 27, DaNs were treated for 3 days with the above lysosomal agonists.

Data set [3] concerns TH. The data set is described as follows: TH gene expression along time-course of PEP treatment. Type of data set: cell-based, human. Particulars: paired time-course samples. An excerpt:
(§4) The elevated phosphorylation of PKCa was absent in the undifferentiated iPSCs and no clear pattern was evident in peripheral blood from the individual patients indicating specificity to the differentiated DaNs.

The subject of data set [4] is various cancer cell lines and primary acute myeloid leukaemia (AML) cells. The settings on record: cited from earlier work.
For the next data set, the system named is SNCA. The data set is described as follows: SNCA gene expression along time-course of PEP treatment. It counts as cell-based, human. The settings on record: paired time-course samples.
Excerpt: as §4

The subject of the next data set is PKC C1 domains. The settings on record: cited from earlier work.
The test system of the next data set is LAMP1. Briefly: Western blot of LAMP1 in PEP-treated DaNs. Type of data set: cell-based, human. The settings on record: for LAMP1 response to treatment: PD cells.
Excerpt: as §4
PEP is described as both an activator of the pro-apoptotic […] and an inhibitor of PKCα.

The next data set deals with cleaved caspase 3 (CC3). Briefly: Cleaved caspase 3 in time-course of PEP treatment of DaNs. It counts as cell-based, human. The settings on record: PD cells, on drug treatment; listed as PEP.
Excerpt: as §4, §2

For the next data set, the system named is DaN cultures. Briefly: LDH on drug treatment of DaN cultures (cell death). It counts as cell-based, human.
Excerpt: as §2

Another data set relates to LC3. Briefly: Western blot of LC3 in PEP-treated DaNs. It counts as cell-based, human. Particulars: PD cells.
Excerpt: as §4

In another data set the test system is synuclein. The data set is described as follows: Injection into ventricles of WT mice, synuclein in striatum. It counts as in vivo, mouse. Particulars: WT mice, 0.3, 3, and 30 uM injected into ventricles, 1 and 5 days post injection. Here is the method:
(§5) In vivo, PEP stimulates synuclein degradation. Dosage studies of 0.3, 3, and 30 uM PEP was injected into the ventricles of WT mice.

In another data set the test system is p-PKCa. The data set is described as follows: Western blot of phosphorylated PKC alpha in treated DaNs. Type of data set: cell-based, human.
Excerpt: as §4

In data set [5] the test system is α-Synuclein. Briefly: Western blot of α-Synuclein in iPSC-derived DaNs treated with lysosomal agonists. It counts as cell-based, human. The settings on record: for amount of α-Synuclein protein: DaNs from control lines. The protocol: as §3, §4
For data set [6], the system named is TH. The data set is described as follows: Injection into ventricles of WT mice, TH in striatum. Type of data set: in vivo, mouse. The settings on record: WT mice, 0.3, 3, and 30 uM injected into ventricles, 1 and 5 days post injection. The protocol: as §5
The next data set has as its system PC12 cell model. Particulars: cited from earlier work.
The mark [7] stands for this setting: time-course, control and PD DaNs.
The mark [8] stands for this setting: treated 3 days starting at day 27.

As to `CC(C)C[C@@H](C=O)NC(=O)[C@H](CC(C)C)NC(=O)[C@H](CC(C)C)NC(=O)OCc1ccccc1` [MG132] (Cbz-Leu-Leu-Leu-aldehyde), in the data set on P53, the P53 level entry is recorded as “accumulation of P53”. The α-Synuclein levels result in the data set with α-Synuclein [1] was “no substantial change”.
On to `C/C=C(/C)C(=O)O[C@H]1C(C)=C[C@]23C(=O)[C@@H](C=C(CO)[C@@H](O)[C@]12O)[C@H]1[C@@H](C[C@H]3C)C1(C)C` [PEP005, ingenol-3-angelate], for which the PKC6 signal entry in [2] is “did not observe a strong PKC6 signal”. The “amount of TH enzyme present” value with TH enzyme is “increased amount of TH enzyme present”; in the data set on TH enzyme (listed as PEP), “increase in the amount of TH”. Moreover, the “time after initial exposure at which TH is upregulated” value with TH [3] was “roughly 8 hours”. In addition, the apoptosis entry in data set [4] (leukemic cell lines and primary AML cells) is on record as “induces apoptosis”. For the same compound, the proliferation result in data set [4] (various cancer cell lines and primary AML cells) is reported as “inhibiting proliferation”. Moreover, in the data set with SNCA, the “time after treatment at which SNCA is downregulated” value worked out at 4 h. In the data set on PKC C1 domains, the “affinity for PKC C1 domains” value is given as “subnanomolar affinity”. Also, the “selectivity for individual PKC isoforms” value in the data set with PKC C1 domains (in vitro) is recorded as “no selectivity”. In addition, the “LAMP1 response to treatment” value in the data set on LAMP1 is given as “does not appear to be replicated”; with LAMP1 (listed as PEP), “neither LAMP1 nor LC3 respond”. Moreover, in the data set on LAMP1 (control cells), the “lysosomal protein LAMP1” value is “increase”. For the same compound, the “cleaved caspase 3 (CC3) present” value in the data set on cleaved caspase 3 (CC3) is on record as “marked decrease; also recorded: decrease in the amount of active caspase 3”. Further, the “LDH on drug treatment” value in the data set on DaN cultures is given as “nor do the Inventors see an increase in LDH”. Moreover, in the data set on LC3, the “LC3 response to treatment” value is given as “neither LAMP1 nor LC3 respond”. Also, in the data set with synuclein, the “synuclein in mouse striatum” value is listed as “Reduction of synuclein”. In addition, the “PKC alpha phosphorylation signal” value in the data set on p-PKCa (control and PD DaNs, at endpoint) is listed as “completely ablating this signal”. The “elevated phosphorylation of PKCa” value in the data set with p-PKCa (luM PEP005 for 3 days, DaNs from all iPSC lines) is listed as “clearly ablated”. In addition, the “time until p-PKCa is degraded in response to drug treatment” value in the data set on p-PKCa (setting [7]) is no more than 24 h. The “amount of α-Synuclein protein” value in the data set with α-Synuclein [5] (setting [8]) was “significantly reduced”. For the same compound, the synuclein levels entry in the data set with α-Synuclein [5] (ESOPD DaNs, treated 3 days starting at day 27) is recorded as “substantially reduced”. Further, in the data set on α-Synuclein [5] (both control and PD DaNs), the α-Synuclein levels entry is on record as “reduced”. For the same compound, the synuclein entry in the data set on α-Synuclein [5] (luM PEP005 for 3 days, all treated lines) is reported as “reduced synuclein”. For the same compound, the “time until α-Synuclein is degraded in response to drug treatment” value in the data set on α-Synuclein [5] (setting [7]) was no more than 24 h. In addition, the “TH in mouse striatum” value in the data set on TH [6] is “increase in TH”.
Turning to `C=CCNc1ncnc2ccc(Br)cc12` [SMER28], the “Huntington and α-Synuclein aggregates” value in the data set on PC12 cell model is “reduce Huntington and α-Synuclein aggregates”. Also, the “amount of α-Synuclein protein” value in the data set with α-Synuclein [5] (setting [8]) is on record as “significantly reduced”.
For `OC[C@H]1O[C@H](O[C@H]2O[C@H](CO)[C@@H](O)[C@H](O)[C@H]2O)[C@H](O)[C@@H](O)[C@@H]1O` [Trehalose], the “amount of α-Synuclein protein” value with α-Synuclein [5] (setting [8]) is reported as “not Trehalose significantly reduced”.
